Experimental data reported in patent US20090325920A1, “METHODS FOR THE TREATMENT OF A TRAUMATIC CENTRAL NERVOUS SYSTEM INJURY” (priority 2005, published 2009).

What was measured:
[1] = Stability of progesterone solutions (isocratic HPLC-UV); format: physicochemical
Source text: For all stability testing, the method of […], et al. was used with minor modifications ([…], et al. (1999) Journal of Pharmaceutical & Biomedical Analysis, 19(5):803-8). The method was originally validated to assess the stability of medroxyprogesterone acetate and estradiol valerate tablets. It is an isocratic HPLC-UV method utilizing external standardization. A 5 micron, 4.6×250mm BDS-Hypersil C-18 column (Keystone Scientific) was used and the analyses were completed on an Agilent 100 model HPLC system with photodiode array detector. The mobile phase consisted of 40% 0.07M ammonium acetate buffer, pH 7.2 and 60% acetonitrile. Detection was at […]. […] Reproducibility as assessed by 10 injections of the same preparation on multiple different days was always less that 10%. […] A five point standard curve was run with each analysis.

[2] = system: patients having moderate to severe TBI; assay: Pilot phase II randomized double-blind trial of progesterone for traumatic brain injury, preliminary evaluation (Example 2); format: in vivo, human
Description: The administration protocol was carried out was described above in Example 1.
To determine if a therapeutic response was achieved, the following endpoints were monitored:
ICP reduction determined by calculating “therapeutic intensity level” (ICP-TIL);
duration of coma (injury to awaking);
mortality one-month post injury;
neurological outcome 1 month and 1 year post-injury, as determined by Glasgow outcome scale (GOS), Disability rating scale (DRS) and Galveston orientation and amnesia test (GOAT).
The administration protocol and pharmaceutical composition administered are described in detail in Example 1. Follow up regarding condition occurred at 30 days and 1 year.

[3] = system: adults with blunt TBI, Glasgow Coma Scale score 4-12
Source text: We also hoped to detect signals of activity.
According to the U.S. Food and Drug Administration, an “adverse event” is any undesirable medical event occurring to a subject in a clinical trial, whether or not related to the study drug. This includes events not seen at baseline, or worsened if present at baseline. “Serious adverse events” are defined as death, immediate risk of death, or suspicion that use or continued use would result in the patient's death, prolongation of existing hospitalization, persistent or significant disability/incapacity, or a congenital anomaly/birth defect.
These included any thromboembolic event (deep vein thrombosis, thrombophlebitis, ischemic myocardial infarction, pulmonary embolism, stroke or transient ischemic attack), elevated liver enzymes, temperature elevation, allergic reactions, and hyperglycemia. […] An independent internal safety monitor made the determination if an adverse event was associated with study treatment. Both the FDA and an independent NIH-appointed data safety monitoring board independently reviewed these determinations.
Selection of participants: Consecutive adult victims of blunt TBI who reached Grady within 11 hours of injury with a post-stabilization or “index” Glasgow Coma Scale score (iGCS) of 4-12 were eligible for enrollment (FIG. 5).
Interventions: Following proxy consent, patients were placed in one of 8 clinical subgroups defined by gender (male versus female), race (black versus all others) and TBI severity (moderate versus severe). […] This asymmetric approach was adopted at the request of our NIH-appointed DSMB to maximize the number of patients receiving study drug while maintaining blinding.
Whenever a patient was enrolled, the next kit in sequence for that subgroup was used to prepare infusions. […] The remaining vials were used to prepare 5 subsequent 12-hour infusions at the same standard rate of 10 mls/hour for a total of 3 days of treatment. Details of drug monitoring are reported elsewhere (Wright et al. (2005) J Clin Pharmacol 45(6):640-648).
Methods of Measurement: To assess drug safety, study personnel rounded daily to document the occurrence of adverse events (AEs) or serious adverse events (SAEs). Hourly vital signs (blood pressure, heart rate, respiratory rate, temperature, and pulse oximetry), intracranial pressure readings, and other parameters (mean arterial pressure, cerebral perfusion pressure, and fluid balance), were abstracted from each patient's chart. Laboratory values were obtained from the hospital's information system, and concomitant medications and interventions were noted.
Whenever an SAE occurred, an independent board-certified neurosurgeon assessed its potential relationship to study treatment using pre-defined scale. SABs were reported within 24 hours to the Institutional Review Board (IRB), our NIH-appointed Data Safety Monitoring Board (DSMB), and the U.S. Food and Drug Administration. All other adverse events were reported to on a weekly basis.
The infusion was stopped if a patient experienced an anaphylactic reaction, a major thromboembolic event, an unexplained elevation of serum aspartate aminotransferase (AST) or alanine aminotransferase (ALT) to a level greater than 5,000 IU, or a serum total bilirubin level greater than 10 mg/dl. […] These rules were based on O'Brien-Fleming boundaries (O'Brien and Fleming (1979) Biometrics 35(3):549-556), constructed using an alpha spending approach (DeMets and Lan (1994) Statistics in Medicine 13(13-14):1341-1352; discussion 1353-1346).
Primary Data Analysis—Treatment and placebo groups were compared with respect to a variety of demographic, historical and prehospital characteristics to ensure that important independent predictors of outcome were equally distributed.

[4] = Solubility of progesterone in carriers; format: physicochemical
[5] = number of subjects, treatment A (76 of 99)

CC(=O)[C@H]1CC[C@H]2[C@@H]3CCC4=CC(=O)CC[C@]4(C)[C@H]3CC[C@]12C [progesterone, pregn-4-ene-3,20-dione]
stability of solution ([1]; Intralipid solutions containing progesterone in 95% ethyl alcohol): ≥ 24 h | stability of solution ([1]; solution of progesterone in 95% ethyl alcohol, room temperature): up to 2 years | mortality rate ([2]; moderate to severe TBI, three days IV progesterone, preliminary): 12.9% | Brain death, frequency [2, 5]: 4 | Medicinal death, frequency [2, 5]: 5 | Not Dead, frequency [2, 5]: 67 | proportion of subjects experiencing brain death versus group B ([2]; p=0.0295 by Fisher's exact test): significantly lower proportion | proportion of subjects experiencing medical death versus group B ([2]; p=0.6622 by Fisher's exact): not statistically significant | Medicinal death, percent ([2]; percent of all 99 subjects): 5.05% | Not Dead, percent ([2]; percent of all 99 subjects): 67.68% | reduction in brain deaths ([2]; versus control subjects, preliminary): 60% | 30-day adverse event rate: Acute respiratory distress syndrome ([3]; both, human, in vivo, 30 days): 2.6% | 30-day adverse event rate: Cardiac Arrhythmia ([3]; both, human, in vivo, 30 days): 5.2% | 30-day adverse event rate: Cholestatic Jaundice ([3]; both, human, in vivo, 30 days): 6.5% | 30-day adverse event rate: Fever ([3]; both, human, in vivo, 30 days): 70.1% | 30-day adverse event rate: Gastrointestinal Bleed ([3]; both, human, in vivo, 30 days): 5.2% | 30-day adverse event rate: Hyperglycemia-non DM ([3]; both, human, in vivo, 30 days): 27.3% | 30-day adverse event rate: Hypertension ([3]; both, human, in vivo, 30 days): 11.7% | 30-day adverse event rate: Hypotension ([3]; both, human, in vivo, 30 days): 9.1% | 30-day adverse event rate: Hypothermia ([3]; both, human, in vivo, 30 days): 5.2% | 30-day adverse event rate: Hypoxemia ([3]; both, human, in vivo, 30 days): 11.7% | 30-day adverse event rate: Increase Liver Enzyme ([3]; both, human, in vivo, 30 days): 6.5% | 30-day adverse event rate: Phlebitis at Injection Site ([3]; both, human, in vivo, 30 days): 1.3% | 30-day adverse event rate: Rash or Hives ([3]; both, human, in vivo, 30 days): 2.6% | 30-day adverse event rate: Seizures ([3]; both, human, in vivo, 30 days): 5.2% | 30-day adverse event rate: Shock ([3]; both, human, in vivo, 30 days): 2.6% | 30-day adverse event rate: Suspected Pneumonia ([3]; both, human, in vivo, 30 days): 11.7% | 30-day adverse event rate: Syndrome of inappropriate ADH ([3]; both, human, in vivo, 30 days): 1.3% | 30-day adverse event rate: Tachycardia ([3]; both, human, in vivo, 30 days): 24.7% | 30-day adverse event rate: Thromboembolic Disease ([3]; both, human, in vivo, 30 days): 3.9% | Mean Duration of Pressures Exceeding Threshold Values: CPP < 60 ([3]; in vivo): 6.9 h | Mean Duration of Pressures Exceeding Threshold Values: ICP > 25 ([3]; in vivo): 5.0 h | Mean Duration of Pressures Exceeding Threshold Values: MAP < 70 ([3]; in vivo): 2.5 h | Mean Duration of Pressures Exceeding Threshold Values: Systolic BP < 90 ([3]; in vivo): 2.7 h | Mean Frequency of Pressures Exceeding Threshold Values: CPP < 60 ([3]; in vivo): 92.9 Rate/1000 consecutive readings | Mean Frequency of Pressures Exceeding Threshold Values: ICP > 25 ([3]; in vivo): 70.2 Rate/1000 consecutive readings | Mean Frequency of Pressures Exceeding Threshold Values: MAP < 70 ([3]; in vivo): 29.5 Rate/1000 consecutive readings | Mean Frequency of Pressures Exceeding Threshold Values: Systolic BP < 90 ([3]; in vivo): 32.1 Rate/1000 consecutive readings | Percent of Patients with Clinical Values Exceeding the Threshold: CPP < 60 ([3]; in vivo): 48.7% | Percent of Patients with Clinical Values Exceeding the Threshold: ICP > 25 ([3]; in vivo): 32.4% | Percent of Patients with Clinical Values Exceeding the Threshold: MAP < 70 ([3]; in vivo): 29.0% | Percent of Patients with Clinical Values Exceeding the Threshold: Systolic BP < 90 ([3]; in vivo): 29.0% | adverse events specifically ascribed to administration ([3]; in vivo): two cases of superficial phlebitis at the IV site | aggregate and individual rates of adverse and serious adverse events versus placebo ([3]; in vivo): not different between groups | patients who developed a deep vein thrombosis ([3]; in vivo): Three patients | serious adverse events attributed to study drug ([3]; in vivo): No serious adverse events were attributed to progesterone | slope of treatment by time interaction term for mean temperature ([3]; in vivo): −0.0055 | 30-day adverse event rate: Central nervous system infection ([3]; progesterone group, n=77): 1.3% | 30-day adverse event rate: Death within 30 days ([3]; progesterone group, n=77): 13.0% | 30-day adverse event rate: Sepsis ([3]; progesterone group, n=77): 2.6% | solubility [4]: soluble only in alcohol | amount dissolved into solution ([4]; Intralipid 20%): up to 4 gm per 1 liter of intralipid
